The test addresses Full-length inactive AKT1 (Homo sapiens, UniProt P31749). Put plainly: Inactive Akt Alpha Screen Assay. The class given is biochemical. The conditions noted are these: AlphaScreen assay (values not marked with *); read-out: Akt1 IC50, (AlphaScreen) (μM) (or if marked with “*” HTRF assay). The gist of the method:
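AlphaScreen read-out (excitation 640 nm, emission 570 nm) after 90 min incubation at room temperature in the dark. Signal comes from crosstide phosphorylation by AKT1, which was activated by added PDK1, MAPKAPK2, ATP and lipid vesicles, captured via phospho-AKT substrate antibody and streptavidin beads.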
Sequence of Full-length inactive AKT1 (P31749 whole entry): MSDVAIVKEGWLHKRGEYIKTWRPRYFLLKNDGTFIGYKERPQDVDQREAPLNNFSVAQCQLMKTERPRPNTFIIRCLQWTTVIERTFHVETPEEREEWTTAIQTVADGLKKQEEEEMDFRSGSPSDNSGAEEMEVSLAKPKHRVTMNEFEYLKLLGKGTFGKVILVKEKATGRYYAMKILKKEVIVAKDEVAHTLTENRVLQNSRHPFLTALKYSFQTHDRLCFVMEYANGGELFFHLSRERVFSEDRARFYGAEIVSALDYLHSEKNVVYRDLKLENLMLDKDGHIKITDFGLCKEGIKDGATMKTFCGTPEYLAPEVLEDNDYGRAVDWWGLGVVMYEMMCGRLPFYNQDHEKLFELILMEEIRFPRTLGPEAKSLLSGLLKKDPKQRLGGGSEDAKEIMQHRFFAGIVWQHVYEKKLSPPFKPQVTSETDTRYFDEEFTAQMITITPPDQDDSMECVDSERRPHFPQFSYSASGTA
`Nc1ncccc1-c1nc2ccc(-c3ccnc(O)c3)nc2n1-c1ccc(C2(N)CCC2)cc1` [Example 448, 4-{3-[4-(1-aminocyclobutyl)phenyl]-2-(2-aminopyridin-3-yl)-3H-imidazo[4,5-b]pyridin-5-yl}pyridin-2-ol]: the IC50 – broadly, the midpoint of a concentration-inhibition curve – came to 0.0039 µM.
In the case of `Nc1ncccc1-c1nc2ccc(-c3cccc(N4CCCC4)c3)nc2n1-c1ccc(C2(N)CCC2)cc1` [Example 449, 3-{3-[4-(1-aminocyclobutyl)phenyl]-5-(3-pyrrolidin-1-ylphenyl)-3H-imidazo[4,5-b]pyridin-2-yl}pyridin-2-amine] it was 0.0023 µM; in that of `CNC(=O)c1ccc(-c2ccc3nc(-c4cccnc4N)n(-c4ccc(C5(N)CCC5)cc4)c3n2)cc1F` [Example 450, 4-{3-[4-(1-aminocyclobutyl)phenyl]-2-(2-aminopyridin-3-yl)-3H-imidazo[4,5-b]pyridin-5-yl}-2-fluoro-N-methylbenzamide], 0.0072 µM; in that of `Nc1ncccc1-c1nc2ccc(-c3cccc(N4CCOCC4)n3)nc2n1-c1ccc(C2(N)CCC2)cc1` [Example 451, 3-{3-[4-(1-aminocyclobutyl)phenyl]-5-(6-morpholin-4-ylpyridin-2-yl)-3H-imidazo[4,5-b]pyridin-2-yl}pyridin-2-amine], 0.0071 µM.
Take `Nc1ncccc1-c1nc2ccc(-c3ccc4[nH]ccc4c3)nc2n1-c1ccc(C2(N)CCC2)cc1` [Example 452, 3-{3-[4-(1-aminocyclobutyl)phenyl]-5-(1H-indol-5-yl)-3H-imidazo[4,5-b]pyridin-2-yl}pyridin-2-amine]: the IC50 worked out at 0.0041 µM.
On to `Nc1ncccc1-c1nc2ccc(-c3ccc4c(c3)CC(=O)N4)nc2n1-c1ccc(C2(N)CCC2)cc1` [Example 453, 5-{3-[4-(1-aminocyclobutyl)phenyl]-2-(2-aminopyridin-3-yl)-3H-imidazo[4,5-b]pyridin-5-yl}-1,3-dihydro-2H-indol-2-one], for which the IC50 is 0.0028 µM.
With `Nc1ncccc1-c1nc2ccc(-c3cccc4c3CC(=O)N4)nc2n1-c1ccc(C2(N)CCC2)cc1` [Example 454, 4-{3-[4-(1-aminocyclobutyl)phenyl]-2-(2-aminopyridin-3-yl)-3H-imidazo[4,5-b]pyridin-5-yl}-1,3-dihydro-2H-indol-2-one], the IC50 amounted to 0.0094 µM.
On to `CN(C)S(=O)(=O)Nc1cccc(-c2ccc3nc(-c4cccnc4N)n(-c4ccc(C5(N)CCC5)cc4)c3n2)c1` [Example 455, N′-(3-{3-[4-(1-aminocyclobutyl)phenyl]-2-(2-aminopyridin-3-yl)-3H-imidazo[4,5-b]pyridin-5-yl}phenyl)-N,N-dimethylsulfamide], for which the IC50 was determined as 0.011 µM.
In the case of `Nc1ncccc1-c1nc2ccc(-c3cccc(-n4cccn4)c3)nc2n1-c1ccc(C2(N)CCC2)cc1` [Example 456, 3-{3-[4-(1-aminocyclobutyl)phenyl]-5-[3-(1H-pyrazol-1-yl)phenyl]-3H-imidazo[4,5-b]pyridin-2-yl}pyridin-2-amine], the half-maximal inhibitory concentration (IC50) turned out to be 0.0031 µM.
On to `Nc1ncccc1-c1nc2ccc(-c3cccc(N4CCC4)c3)nc2n1-c1ccc(C2(N)CCC2)cc1` [Example 457, 3-{3-[4-(1-aminocyclobutyl)phenyl]-5-(3-azetidin-1-ylphenyl)-3H-imidazo[4,5-b]pyridin-2-yl}pyridin-2-amine], for which the IC50 is 0.0093 µM.
With `Nc1ncccc1-c1nc2ccc(-c3cccc(N4CCCCCC4)c3)nc2n1-c1ccc(C2(N)CCC2)cc1` [Example 458, 3-{3-[4-(1-aminocyclobutyl)phenyl]-5-(3-azepan-1-ylphenyl)-3H-imidazo[4,5-b]pyridin-2-yl}pyridin-2-amine] the figure was 0.012 µM.
In the case of `Nc1ncccc1-c1nc2ccc(-c3cccc(N4CCCOCC4)c3)nc2n1-c1ccc(C2(N)CCC2)cc1` [Example 459, 3-{3-[4-(1-aminocyclobutyl)phenyl]-5-[3-(1,4-oxazepan-4-yl)phenyl]-3H-imidazo[4,5-b]pyridin-2-yl}pyridin-2-amine] it was 0.0077 µM.

For the origin of these results see US8501770B2 (ArQule, Inc., priority 2009, dated 2013).
